Reference: ChEMBL document CHEMBL1157186, “Characterization of chemical components in extracts from Si-wu decoction with proliferation-promoting effects on rat mesenchymal stem cells” (Bioorg Med Chem, 2008)
Activity calls are given as the source filed them. No cut-off for these calls is given here.

System: Mesenchymal stem cell
Assay: Induction of proliferation of rat mesenchymal stem cells by MTT assay
Format: functional, cell-based

Which Activity does the source give for `CCC/C=C1\OC(=O)C2=C1CCC=C2` here?
Its Activity is “Active”.

`CC/C=C1\OC(=O)C2=C1C=CC(O)C2O` (configuration not stated) was tested. Which Activity did it give?
The Activity was “Active”.
